This data set is described as follows: Solubility / biopharmaceutical classification (BCS) of lanraplenib. It is filed as physicochemical. Particulars: in physiological conditions.

As for `Nc1cncc(-c2cn3ccnc3c(Nc3ccc(N4CCN(C5COC5)CC4)cc3)n2)n1` [Lanraplenib], the solubility entry is “low”.

The values are drawn from patent US20260028344A1, “CRYSTALLINE FORMS OF LANRAPLENIB AND METHODS OF MAKING AND USING THE SAME” (Kronos Bio, Inc., priority 2022, published 2026).
